# Data taken from patent US6472348B1, “Pyridone derivatives and herbicides” (Kumiai Chemical Industry Co., Ltd., priority 1996, dated 2002).
# Test system: Digitaria ciliaris (Di)
# Assay: Test Example 2: herbicidal effects by upland field soil treatment;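 note: grade of growth control; 5 = at least 90%; 4 = 70 to 90%; 3 = 50 to 70%; 2 = 30 to 50%; 1 = 10 to 30%; 0 = under 10%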
# Type: in vivo
# Settings: 100 g of the active ingredient per 10 ares, evaluated on the 21st day after application
# Description: (§1) (Test on Herbicidal Effects by Upland Field Soil Treatment)
row,SMILES,Herbicidal effects Di
1,CNS(=O)(=O)c1cc(-c2ccc(C(F)(F)F)n(C)c2=O)c(Cl)cc1Cl [Compound 1-256],5
2,Cc1cc2c(-c3ccc(C(F)(F)F)n(C)c3=O)ccc(Cl)c2o1 [Compound 4-24],5
3,Cc1cc2c(-c3ccc(C(F)(F)F)n(C)c3=O)c(Cl)cc(Cl)c2o1 [Compound 4-10],5

# Test system: barnyardgrass (Ec)
# Assay: as above
# Type: in vivo
# Settings: 100 g of the active ingredient per 10 ares, evaluated on the 21st day after application
# Description: as §1
row,SMILES,Herbicidal effects Ec
1,CNS(=O)(=O)c1cc(-c2ccc(C(F)(F)F)n(C)c2=O)c(Cl)cc1Cl [Compound 1-256],5
2,Cc1cc2c(-c3ccc(C(F)(F)F)n(C)c3=O)ccc(Cl)c2o1 [Compound 4-24],4
3,Cc1cc2c(-c3ccc(C(F)(F)F)n(C)c3=O)c(Cl)cc(Cl)c2o1 [Compound 4-10],5

# Test system: rice flatsedge (Ci)
# Assay: as above
# Type: in vivo
# Settings: 100 g of the active ingredient per 10 ares, evaluated on the 21st day after application
# Description: as §1
row,SMILES,Herbicidal effects Ci
1,CNS(=O)(=O)c1cc(-c2ccc(C(F)(F)F)n(C)c2=O)c(Cl)cc1Cl [Compound 1-256],5
2,Cc1cc2c(-c3ccc(C(F)(F)F)n(C)c3=O)ccc(Cl)c2o1 [Compound 4-24],5
3,Cc1cc2c(-c3ccc(C(F)(F)F)n(C)c3=O)c(Cl)cc(Cl)c2o1 [Compound 4-10],5

# Test system: pale smartweed (Po)
# Assay: as above
# Type: in vivo
# Settings: 100 g of the active ingredient per 10 ares, evaluated on the 21st day after application
# Description: as §1
row,SMILES,Herbicidal effects Po
1,CNS(=O)(=O)c1cc(-c2ccc(C(F)(F)F)n(C)c2=O)c(Cl)cc1Cl [Compound 1-256],5
2,Cc1cc2c(-c3ccc(C(F)(F)F)n(C)c3=O)ccc(Cl)c2o1 [Compound 4-24],5
3,Cc1cc2c(-c3ccc(C(F)(F)F)n(C)c3=O)c(Cl)cc(Cl)c2o1 [Compound 4-10],5

# Test system: common lambsquarters (Ch)
# Assay: as above
# Type: in vivo
# Settings: 100 g of the active ingredient per 10 ares, evaluated on the 21st day after application
# Description: as §1
row,SMILES,Herbicidal effects Ch
1,CNS(=O)(=O)c1cc(-c2ccc(C(F)(F)F)n(C)c2=O)c(Cl)cc1Cl [Compound 1-256],5
2,Cc1cc2c(-c3ccc(C(F)(F)F)n(C)c3=O)ccc(Cl)c2o1 [Compound 4-24],5
3,Cc1cc2c(-c3ccc(C(F)(F)F)n(C)c3=O)c(Cl)cc(Cl)c2o1 [Compound 4-10],5

# Test system: slender amaranth (Am)
# Assay: as above
# Type: in vivo
# Settings: 100 g of the active ingredient per 10 ares, evaluated on the 21st day after application
# Description: as §1
row,SMILES,Herbicidal effects Am
1,CNS(=O)(=O)c1cc(-c2ccc(C(F)(F)F)n(C)c2=O)c(Cl)cc1Cl [Compound 1-256],5
2,Cc1cc2c(-c3ccc(C(F)(F)F)n(C)c3=O)ccc(Cl)c2o1 [Compound 4-24],5
3,Cc1cc2c(-c3ccc(C(F)(F)F)n(C)c3=O)c(Cl)cc(Cl)c2o1 [Compound 4-10],5

# Test system: barnyardgrass (Ec)
# Assay: Test Example 1: herbicidal effects by paddy field soil treatment;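 note: grade of growth control; 5 = at least 90%; 4 = 70 to 90%; 3 = 50 to 70%; 2 = 30 to 50%; 1 = 10 to 30%; 0 = under 10%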
# Type: in vivo
# Settings: 100 g of the active ingredient per 10 ares, 21st day after the application, index 0-5 of Table 47
# Summary of the method: (§2)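 Scoring of herbicidal effect came 21 days after application of 100 g active ingredient per 10 ares to flooded (3 cm) paddy-soil pots sown with barnyardgrass, monochoria and bulrush, kept in a greenhouse.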
row,SMILES,Herbicidal effects Ec
1,CNS(=O)(=O)c1cc(-c2ccc(C(F)(F)F)n(C)c2=O)c(Cl)cc1Cl [Compound 1-256],5
2,Cc1cc2c(-c3ccc(C(F)(F)F)n(C)c3=O)ccc(Cl)c2o1 [Compound 4-24],5
3,Cc1cc2c(-c3ccc(C(F)(F)F)n(C)c3=O)c(Cl)cc(Cl)c2o1 [Compound 4-10],5

# Test system: monochoria (Mo)
# Assay: as above
# Type: in vivo
# Settings: 100 g of the active ingredient per 10 ares, 21st day after the application, index 0-5 of Table 47
# Summary of the method: as §2
row,SMILES,Herbicidal effects Mo
1,CNS(=O)(=O)c1cc(-c2ccc(C(F)(F)F)n(C)c2=O)c(Cl)cc1Cl [Compound 1-256],5
2,Cc1cc2c(-c3ccc(C(F)(F)F)n(C)c3=O)ccc(Cl)c2o1 [Compound 4-24],5
3,Cc1cc2c(-c3ccc(C(F)(F)F)n(C)c3=O)c(Cl)cc(Cl)c2o1 [Compound 4-10],5

# Test system: bulrush (Sc)
# Assay: as above
# Type: in vivo
# Settings: 100 g of the active ingredient per 10 ares, 21st day after the application, index 0-5 of Table 47
# Summary of the method: as §2
row,SMILES,Herbicidal effects Sc
1,CNS(=O)(=O)c1cc(-c2ccc(C(F)(F)F)n(C)c2=O)c(Cl)cc1Cl [Compound 1-256],5
2,Cc1cc2c(-c3ccc(C(F)(F)F)n(C)c3=O)ccc(Cl)c2o1 [Compound 4-24],5
3,Cc1cc2c(-c3ccc(C(F)(F)F)n(C)c3=O)c(Cl)cc(Cl)c2o1 [Compound 4-10],5

# Test system: barnyardgrass (Ec)
# Assay: Test Example 3: herbicidal effects by upland field foliage treatment
# Type: in vivo
# Parameters: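 grade of growth control; 5 = at least 90%; 4 = 70 to 90%; 3 = 50 to 70%; 2 = 30 to 50%; 1 = 10 to 30%; 0 = under 10%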
# Settings: 100 g active ingredient per 10 ares, evaluated 14th day after treatment
# Summary of the method: (§3)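 Weeds were sown in sand-filled pots (surface area: 120 cm^2), covered with soil and grown in a greenhouse for 2 weeks before foliar treatment. Plants then stayed in the greenhouse, and herbicidal effect was scored against graded standards on the 14th day after treatment.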
row,SMILES,Herbicidal effects Ec
1,CNS(=O)(=O)c1cc(-c2ccc(C(F)(F)F)n(C)c2=O)c(Cl)cc1Cl [Compound 1-256],5
2,Cc1cc2c(-c3ccc(C(F)(F)F)n(C)c3=O)ccc(Cl)c2o1 [Compound 4-24],4
3,Cc1cc2c(-c3ccc(C(F)(F)F)n(C)c3=O)c(Cl)cc(Cl)c2o1 [Compound 4-10],5

# Test system: rice flatsedge (Ci)
# Assay: as above
# Type: in vivo
# Parameters: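 grade of growth control; 5 = at least 90%; 4 = 70 to 90%; 3 = 50 to 70%; 2 = 30 to 50%; 1 = 10 to 30%; 0 = under 10%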
# Settings: 100 g active ingredient per 10 ares, evaluated 14th day after treatment
# Summary of the method: as §3
row,SMILES,Herbicidal effects Ci
1,CNS(=O)(=O)c1cc(-c2ccc(C(F)(F)F)n(C)c2=O)c(Cl)cc1Cl [Compound 1-256],5
2,Cc1cc2c(-c3ccc(C(F)(F)F)n(C)c3=O)ccc(Cl)c2o1 [Compound 4-24],5
3,Cc1cc2c(-c3ccc(C(F)(F)F)n(C)c3=O)c(Cl)cc(Cl)c2o1 [Compound 4-10],5

# Test system: pale smartweed (Po)
# Assay: as above
# Type: in vivo
# Parameters: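 grade of growth control; 5 = at least 90%; 4 = 70 to 90%; 3 = 50 to 70%; 2 = 30 to 50%; 1 = 10 to 30%; 0 = under 10%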
# Settings: 100 g active ingredient per 10 ares, evaluated 14th day after treatment
# Summary of the method: as §3
row,SMILES,Herbicidal effects Po
1,CNS(=O)(=O)c1cc(-c2ccc(C(F)(F)F)n(C)c2=O)c(Cl)cc1Cl [Compound 1-256],5
2,Cc1cc2c(-c3ccc(C(F)(F)F)n(C)c3=O)ccc(Cl)c2o1 [Compound 4-24],5
3,Cc1cc2c(-c3ccc(C(F)(F)F)n(C)c3=O)c(Cl)cc(Cl)c2o1 [Compound 4-10],5

# Test system: common lambsquarters (Ch)
# Assay: as above
# Type: in vivo
# Parameters: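 grade of growth control; 5 = at least 90%; 4 = 70 to 90%; 3 = 50 to 70%; 2 = 30 to 50%; 1 = 10 to 30%; 0 = under 10%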
# Settings: 100 g active ingredient per 10 ares, evaluated 14th day after treatment
# Summary of the method: as §3
row,SMILES,Herbicidal effects Ch
1,CNS(=O)(=O)c1cc(-c2ccc(C(F)(F)F)n(C)c2=O)c(Cl)cc1Cl [Compound 1-256],5
2,Cc1cc2c(-c3ccc(C(F)(F)F)n(C)c3=O)ccc(Cl)c2o1 [Compound 4-24],5
3,Cc1cc2c(-c3ccc(C(F)(F)F)n(C)c3=O)c(Cl)cc(Cl)c2o1 [Compound 4-10],5

# Test system: Diaitaria ciliaris (Di)
# Assay: as above
# Type: in vivo
# Parameters: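 grade of growth control; 5 = at least 90%; 4 = 70 to 90%; 3 = 50 to 70%; 2 = 30 to 50%; 1 = 10 to 30%; 0 = under 10%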
# Settings: 100 g active ingredient per 10 ares, evaluated 14th day after treatment
# Summary of the method: as §3
row,SMILES,Herbicidal effects Di
1,CNS(=O)(=O)c1cc(-c2ccc(C(F)(F)F)n(C)c2=O)c(Cl)cc1Cl [Compound 1-256],5
2,Cc1cc2c(-c3ccc(C(F)(F)F)n(C)c3=O)ccc(Cl)c2o1 [Compound 4-24],5
3,Cc1cc2c(-c3ccc(C(F)(F)F)n(C)c3=O)c(Cl)cc(Cl)c2o1 [Compound 4-10],5

# Test system: slender amaranth (Am)
# Assay: as above
# Type: in vivo
# Parameters: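 grade of growth control; 5 = at least 90%; 4 = 70 to 90%; 3 = 50 to 70%; 2 = 30 to 50%; 1 = 10 to 30%; 0 = under 10%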
# Settings: 100 g active ingredient per 10 ares, evaluated 14th day after treatment
# Summary of the method: as §3
row,SMILES,Herbicidal effects Am
1,CNS(=O)(=O)c1cc(-c2ccc(C(F)(F)F)n(C)c2=O)c(Cl)cc1Cl [Compound 1-256],5
2,Cc1cc2c(-c3ccc(C(F)(F)F)n(C)c3=O)ccc(Cl)c2o1 [Compound 4-24],5
3,Cc1cc2c(-c3ccc(C(F)(F)F)n(C)c3=O)c(Cl)cc(Cl)c2o1 [Compound 4-10],5
